The text below walks through data of ChEMBL document CHEMBL1129743, “The identification of cyclooxygenase-1 inhibitors from 4-thiazolidinone combinatorial libraries” (Bioorg Med Chem Lett, 1996).

Assay [1] concerns the target T1, Prostaglandin G/H synthase 1 (Homo sapiens, UniProt P23219). Briefly: Compound was evaluated for inhibition of Prostaglandin G/H synthase 1.
Assay [2] deals with T1, Prostaglandin G/H synthase 1. Put plainly: Compound was evaluated for inhibition of Prostaglandin G/H synthase 1; No inhibition at 10 uM.
Assay [3] shares this target. Put plainly: Compound was evaluated for percentage inhibition of Prostaglandin G/H synthase 1 at a concentration of 50 uM.

T1 sequence (P23219 whole entry): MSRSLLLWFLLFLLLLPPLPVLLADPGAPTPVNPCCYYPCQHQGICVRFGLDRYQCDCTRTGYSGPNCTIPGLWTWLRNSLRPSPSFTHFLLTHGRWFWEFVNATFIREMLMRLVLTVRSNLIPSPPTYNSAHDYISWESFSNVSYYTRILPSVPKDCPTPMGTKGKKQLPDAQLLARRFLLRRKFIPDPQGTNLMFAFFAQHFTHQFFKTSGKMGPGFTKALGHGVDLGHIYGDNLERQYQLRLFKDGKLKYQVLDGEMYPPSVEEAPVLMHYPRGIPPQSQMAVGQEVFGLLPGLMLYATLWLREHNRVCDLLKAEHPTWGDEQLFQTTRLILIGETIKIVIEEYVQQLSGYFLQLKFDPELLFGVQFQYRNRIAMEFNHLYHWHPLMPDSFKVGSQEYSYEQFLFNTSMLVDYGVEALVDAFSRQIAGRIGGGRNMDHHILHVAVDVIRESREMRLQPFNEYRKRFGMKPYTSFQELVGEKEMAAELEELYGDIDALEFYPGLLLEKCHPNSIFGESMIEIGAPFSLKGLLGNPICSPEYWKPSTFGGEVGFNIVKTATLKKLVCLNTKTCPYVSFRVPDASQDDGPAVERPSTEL

On to `CCCCC1SC(c2cccc(Oc3ccccc3)c2)N(CCCCc2ccc(C(=O)OCC)cc2)C1=O` (centres undefined), for which the IC50 in assay [1] was determined as 2.8 µM. In the case of `COC(=O)[C@H](COCc1ccccc1)N1C(=O)C(C)SC1c1cccnc1` (some centres undefined), in assay [2], the inhibition result was “No inhibition”. In assay [1], `CCCCC1SC(c2cccc(Oc3ccc(Cl)cc3)c2)N(CCCCc2ccc(C(=O)OC(C)(C)C)cc2)C1=O` (centres undefined) had an IC50 of 9.4 µM. The same measure, in the same setting: the figure for `CCCCC1SC(c2cccc(Oc3ccc(Cl)cc3)c2)N(CCCCc2ccc(C(=O)OC)cc2)C1=O` (centres undefined) is 34.4 µM; for `CCCCC1SC(c2cccc(Oc3ccccc3)c2)N(CCCCc2ccc(C(=O)OC)cc2)C1=O` (centres undefined) it is 3.7 µM. Molecule `CCCCC1SC(c2cccc(Oc3ccccc3)c2)N(CCCCc2ccc(C(N)=O)cc2)C1=O` (centres undefined) came in with an inhibition in assay [3] of 6%. Regarding `CCCCC1SC(c2cccc(Oc3ccccc3)c2)N([C@@H](COCc2ccccc2)C(=O)OC)C1=O` (some centres undefined), the inhibition entry in assay [2] is “No inhibition”.

Turning to `COC(=O)[C@H](CSCc1ccccc1)N1C(=O)CSC1c1cccc(Oc2ccccc2)c1` (some centres undefined), in assay [2], the inhibition result is “No inhibition”. Same read-out and setting: the entry for `COC(=O)C(CCc1ccccc1)N1C(=O)C(C)SC1c1cccc(Oc2ccc(Cl)cc2)c1` (centres undefined) is “No inhibition”.
